In BigSolDB 2.1:

Structure (SMILES) | solubility (mole fraction) (in ethanol, 283.15 K) | solubility (mole fraction) (in ethanol, 288.15 K) | solubility (mole fraction) (in ethanol, 293.15 K) | solubility (mole fraction) (in ethanol, 298.15 K) | solubility (mole fraction) (in ethanol, 303.15 K) | solubility (mole fraction) (in ethanol, 308.15 K) | solubility (mole fraction) (in ethanol, 313.15 K) | solubility (mole fraction) (in ethanol, 318.15 K) | solubility (mole fraction) (in ethanol, 323.15 K) | solubility (mole fraction) (in ethyl acetate, 283.15 K) | solubility (mole fraction) (in ethyl acetate, 288.15 K) | solubility (mole fraction) (in ethyl acetate, 293.15 K) | solubility (mole fraction) (in ethyl acetate, 298.15 K) | solubility (mole fraction) (in ethyl acetate, 303.15 K) | solubility (mole fraction) (in ethyl acetate, 308.15 K) | solubility (mole fraction) (in ethyl acetate, 313.15 K) | solubility (mole fraction) (in ethyl acetate, 318.15 K) | solubility (mole fraction) (in ethyl acetate, 323.15 K)
O=C(O)/C=C/c1ccc(O)cc1 | 0.0358 | 0.0381 | 0.0414 | 0.0461 | 0.0514 | 0.0559 | 0.0621 | 0.0675 | 0.0735 | 0.00928 | 0.0101 | 0.0114 | 0.0129 | 0.0145 | 0.0164 | 0.0185 | 0.0208 | 0.0232
COc1cc(C=O)ccc1O | 0.0673 | 0.0698 | 0.0734 | 0.0785 | 0.082 | 0.0854 | 0.0902 | 0.0938 | 0.0985 | 0.109 | 0.115 | 0.118 | 0.125 | 0.128 | 0.133 | 0.137 | 0.142 | 0.15
